Assay results: US7666890B2, “Synthesis and herbicidal activity of 1- (2-substituted benzo[d]thiazol-5-yl)-1H-1,2,4-triazol-5(4H)-one derivatives” (Huazhong Normal University, priority 2007, dated 2010)

Tests used:
Experiment in all cases: Test of herbicidal activities (greenhouse pot method)
Format in all cases: in vivo
Conditions in all cases: single dose 300 g ai./h, treated before/after germination, 15 days later, greenhouse pot
[1] = test system: Amaranthus retroflexus
Procedure, shortened: (§1)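 Greenhouse pot test on weeds grown in mixed garden/mountain/humus soil at 15-30° C; pre- and post-emergence spray at a single dose of 300 g ai./h via automatic spraying tower (0.2 MPa). Inhibition scored after 15 days into five levels A (90-100%) to E (<50%); triplicate with blank control.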

[2] = test system: Brassica juncea
Procedure, shortened: as §1

[3] = test system: Chenopodium album
Procedure, shortened: as §1

[4] = test system: Digiatria sanguinalis
Procedure, shortened: as §1

[5] = test system: Echinochloa crusgalli
Procedure, shortened: as §1

[6] = test system: Setaria viridis
Procedure, shortened: as §1

| Compound | inhibition at 300 g/ha ([1]; Amaranthus retroflexus, 360 h, read-out: Herbicidal activity Amaranthus retroflexus (inhibition level)) [%] | inhibition at 300 g/ha ([2]; Brassica juncea, 360 h, read-out: Herbicidal activity Brassica juncea (inhibition level)) [%] | inhibition at 300 g/ha ([3]; Chenopodium album, 360 h, read-out: Herbicidal activity Chenopodium album (inhibition level)) [%] | inhibition at 300 g/ha ([4]; 360 h, read-out: Herbicidal activity Digiatria sanguinalis (inhibition level)) [%] | inhibition at 300 g/ha ([5]; Echinochloa crus-galli, 360 h, read-out: Herbicidal activity Echinochloa crusgalli (inhibition level)) [%] | inhibition at 300 g/ha ([6]; Setaria viridis, 360 h, read-out: Herbicidal activity Setaria viridis (inhibition level)) [%] | Herbicidal activity Amaranthus retroflexus (inhibition level) [1] | Herbicidal activity Brassica juncea (inhibition level) [2] | Herbicidal activity Chenopodium album (inhibition level) [3] | Herbicidal activity Digiatria sanguinalis (inhibition level) [4] | Herbicidal activity Echinochloa crusgalli (inhibition level) [5] | Herbicidal activity Setaria viridis (inhibition level) [6] |
| --- | --- | --- | --- | --- | --- | --- | --- | --- | --- | --- | --- | --- |
| CCCS(=O)(=O)c1nc2cc(-n3nc(C)n(C)c3=O)c(F)cc2s1 [Compound 48, 1-(6-fluoro-2-(propylsulfonyl)benzo[d]thiazol-5-yl)-3,4-dimethyl-1H-1,2,4-triazol-5(4H)-one] | 80 to 90 | 80 to 90 | 50 to 60 | 80 to 90 | 80 to 90 | 60 to 80 |  |  |  |  |  |  |
| Cc1nn(-c2cc3nc(SCc4ccc(Cl)nc4)sc3cc2Cl)c(=O)n1C(F)F [Compound 1] |  |  |  |  |  |  | A (90 ≦ A ≦ 100%) | B (80 ≦ B < 90%) | C (60 ≦ C < 80%) | B (80 ≦ B < 90%) | B (80 ≦ B < 90%) | D (50 ≦ D < 60%) |
| C=CCS(=O)(=O)c1nc2cc(-n3nc(C)n(C(F)F)c3=O)c(Cl)cc2s1 [Compound 71] |  |  |  |  |  |  | C (60 ≦ C < 80%) | B (80 ≦ B < 90%) | B (80 ≦ B < 90%) | C (60 ≦ C < 80%) | C (60 ≦ C < 80%) | B (80 ≦ B < 90%) |
| Cc1nn(-c2cc3nc(SCc4ccc(Br)cc4F)sc3cc2F)c(=O)n1C(F)F [Compound 22] |  |  |  |  |  |  | B (80 ≦ B < 90%) | D (50 ≦ D < 60%) | D (50 ≦ D < 60%) | C (60 ≦ C < 80%) | C (60 ≦ C < 80%) | C (60 ≦ C < 80%) |
| C=CCSc1nc2cc(-n3nc(C(F)(F)F)n(C(F)F)c3=O)c(Br)cc2s1 [Compound 128] |  |  |  |  |  |  | A (90 ≦ A ≦ 100%) | A (90 ≦ A ≦ 100%) | B (80 ≦ B < 90%) | C (60 ≦ C < 80%) | A (90 ≦ A ≦ 100%) | D (50 ≦ D < 60%) |
| CCCCCCSc1nc2cc(-n3nc(C)n(C(F)F)c3=O)c(F)cc2s1 [Compound 83] |  |  |  |  |  |  | A (90 ≦ A ≦ 100%) | C (60 ≦ C < 80%) | A (90 ≦ A ≦ 100%) | D (50 ≦ D < 60%) | B (80 ≦ B < 90%) | A (90 ≦ A ≦ 100%) |
| CCOC(=O)CS(=O)(=O)c1nc2cc(-n3nc(C)n(C(F)F)c3=O)c(Cl)cc2s1 [Compound 70] |  |  |  |  |  |  | B (80 ≦ B < 90%) | B (80 ≦ B < 90%) | B (80 ≦ B < 90%) | B (80 ≦ B < 90%) | B (80 ≦ B < 90%) | B (80 ≦ B < 90%) |
| CCCS(=O)(=O)c1nc2cc(-n3nc(C)n(C(F)F)c3=O)c(F)cc2s1 [Compound 64] |  |  |  |  |  |  | B (80 ≦ B < 90%) | D (50 ≦ D < 60%) | B (80 ≦ B < 90%) | A (90 ≦ A ≦ 100%) | B (80 ≦ B < 90%) | B (80 ≦ B < 90%) |
| Cc1nn(-c2cc3nc(SCc4cccc(F)c4)sc3cc2F)c(=O)n1C(F)F [Compound 19] |  |  |  |  |  |  | A (90 ≦ A ≦ 100%) | B (80 ≦ B < 90%) | A (90 ≦ A ≦ 100%) | B (80 ≦ B < 90%) | E (E < 50%) | C (60 ≦ C < 80%) |
| Cc1ccc([N+](=O)[O-])c(C[S+]([O-])c2nc3cc(-n4nc(C)n(C(F)F)c4=O)c(F)cc3s2)c1 (stereo not drawn) [Compound 106] |  |  |  |  |  |  | D (50 ≦ D < 60%) | B (80 ≦ B < 90%) | A (90 ≦ A ≦ 100%) | D (50 ≦ D < 60%) | D (50 ≦ D < 60%) | B (80 ≦ B < 90%) |
| C=CCSc1nc2cc(-n3nc(C)n(C(F)F)c3=O)c(Br)cc2s1 [Compound 88] |  |  |  |  |  |  | A (90 ≦ A ≦ 100%) | A (90 ≦ A ≦ 100%) | B (80 ≦ B < 90%) | A (90 ≦ A ≦ 100%) | B (80 ≦ B < 90%) | D (50 ≦ D < 60%) |
| Cc1nn(-c2cc3nc(S(C)(=O)=O)sc3cc2F)c(=O)n1C(F)F [Compound 62] |  |  |  |  |  |  | C (60 ≦ C < 80%) | D (50 ≦ D < 60%) | D (50 ≦ D < 60%) | B (80 ≦ B < 90%) | A (90 ≦ A ≦ 100%) | A (90 ≦ A ≦ 100%) |
| CCCSc1nc2cc(-n3nc(C)n(C(F)F)c3=O)c(Br)cc2s1 [Compound 81] |  |  |  |  |  |  | A (90 ≦ A ≦ 100%) | A (90 ≦ A ≦ 100%) | B (80 ≦ B < 90%) | D (50 ≦ D < 60%) | B (80 ≦ B < 90%) | B (80 ≦ B < 90%) |
| COCCSc1nc2cc(-n3nc(C)n(C(F)F)c3=O)c(Cl)cc2s1 [Compound 76] |  |  |  |  |  |  | A (90 ≦ A ≦ 100%) | C (60 ≦ C < 80%) | C (60 ≦ C < 80%) | A (90 ≦ A ≦ 100%) | A (90 ≦ A ≦ 100%) | B (80 ≦ B < 90%) |
| CSc1nc2cc(-n3nc(C)n(C)c3=O)c(F)cc2s1 [Compound 31] |  |  |  |  |  |  | A (90 ≦ A ≦ 100%) | B (80 ≦ B < 90%) | C (60 ≦ C < 80%) | A (90 ≦ A ≦ 100%) | B (80 ≦ B < 90%) | B (80 ≦ B < 90%) |
| Cc1nn(-c2cc3nc(S(=O)(=O)Cc4ccccc4)sc3cc2Cl)c(=O)n1C(F)F [Compound 37] |  |  |  |  |  |  | C (60 ≦ C < 80%) | D (50 ≦ D < 60%) | A (90 ≦ A ≦ 100%) | C (60 ≦ C < 80%) | D (50 ≦ D < 60%) | E (E < 50%) |
| CCCSc1nc2cc(-n3nc(C)n(C(F)F)c3=O)c(Cl)cc2s1 [Compound 100] |  |  |  |  |  |  | A (90 ≦ A ≦ 100%) | A (90 ≦ A ≦ 100%) | A (90 ≦ A ≦ 100%) | B (80 ≦ B < 90%) | B (80 ≦ B < 90%) | C (60 ≦ C < 80%) |
| Cc1nn(-c2cc3nc(SCc4c(F)cccc4F)sc3cc2Cl)c(=O)n1C(F)F [Compound 9] |  |  |  |  |  |  | B (80 ≦ B < 90%) | A (90 ≦ A ≦ 100%) | C (60 ≦ C < 80%) | B (80 ≦ B < 90%) | B (80 ≦ B < 90%) | E (E < 50%) |
| CCCCSc1nc2cc(-n3nc(C(F)(F)F)n(C(F)F)c3=O)c(Cl)cc2s1 [Compound 126] |  |  |  |  |  |  | B (80 ≦ B < 90%) | A (90 ≦ A ≦ 100%) | B (80 ≦ B < 90%) | A (90 ≦ A ≦ 100%) | B (80 ≦ B < 90%) | C (60 ≦ C < 80%) |
